{
  "source": "patent US12594267B2",
  "about": "“Capsid inhibitors for the treatment of HIV” (Gilead Sciences, Inc., priority 2018, dated 2026)",
  "experiment": "PK after subcutaneous administration of solutions in dogs",
  "format": "in vivo, Beagle dog",
  "conditions": "male, beagle, dog, plasma, sc, 12 mg/kg; for concentration at 336 h / concentration at 504 h / concentration at 672 h / concentration at 840 h / concentration at 1008 h / concentration at 1344 h / concentration at 1680 h / concentration at 1 h / concentration at 3 h / concentration at 8 h / concentration at 24 h / concentration at 48 h / concentration at 72 h / concentration at 96 h / concentration at 168 h: SC 12 mg/kg, 400 mg/mL in 15% water/85% PEG 300; for AUC(0-t): male beagle dog, single SC 12 mg/kg, 400 mg/mL in 85% PEG300 and 15% water, mean ± SD",
  "description": "Formulations containing the compound of Formula (Ia) were prepared as aqueous solutions or oral formulations and administered subcutaneously to rats, dogs, cynomolgus monkey, and/or rhesus monkey.\nA solution of the compound of Formula (Ia) in 10% ethanol, 13% water, and 77% PEG 200 (400 mg/mL) was prepared. The solution was administered subcutaneously to dogs at a dose of 12 mg/kg and rats at a dose of 50 mg/kg and the pharmacokinetic (PK) profile was determined. […] In both species, plasma concentrations of the compound of Formula (Ia) were maintained above the target trough concentration of 20 nM (corresponding to an IQ of 5) for at least 84 days (12 weeks).\nA solution of the compound of Formula (Ia) in 15% water and 85.0 PEG 300 (400 mg/mL) was prepared. The solution was administered subcutaneously to male beagle dogs at a dose level of 12 mg/kg and dose volume of […] and the pharmacokinetic (PK) profile was determined.\nA solution of the compound of Formula (a) sodium salt in water and 300 (300 mg/mL) was prepared that contained 22.6% water/50% PEG 300/1.1% NaOH/26.3% Formula (Ia). The solution was administered subcutaneously to male beagle dogs at a dose level of 12 mg/kg and dose volume of […] and the pharmacokinetic (PK) profile was determined.\nA 300 mg/ml solution of a compound of Formula (Ia) having 9.8 w/w % water, 65.0 w/w % PEG 300, and 25.2 w/w % of the compound of Formula (Ia) was prepared. The solution was administered subcutaneously to rats at a dose of 50 mg/kg and to dogs at a dose of 12 mg/kg and the pharmacokinetic (PK) profile was determined. […] In the rat, plasma concentrations of the compound of Formula (Ia) were maintained above the target trough concentration of 20 nM for at least 168 days (24 weeks). In the dog, plasma concentrations of the compound of Formula (Ia) were maintained above the target trough concentration of 20 nM for at least 84 days (12 weeks).\n(§1) A 150 mg/ml solution of a compound of Formula (Ia) having 27.92 w/w % water, 58.04 w/w % PEG 300, 13.47 w/w % of a compound of Formula (Ia), and 1.1 w/w % NaOH was prepared. The solution was administered subcutaneously to rats at a dose of 50 mg/kg and to dogs at a dose of 12 mg/kg and the pharmacokinetic (PK) profile was determined. […] In the rat, plasma concentrations of the compound of Formula (Ia) were maintained above the target trough concentration of 20 nM for at least 126 days (18 weeks). In the dog, plasma concentrations of the compound of Formula (Ia) were maintained above the target trough concentration of 20 nM for at least 56 days (8 weeks).\nas §1, with “300” for “150”, “23.2” for “27.92”, “50.0” for “58.04”, “25.7” for “13.47”\nA 50 mg/ml solution of a compound of Formula (Ia) having 30.07 w/w % water, 64.40 w/w % PEG 300, 4.68 w/w % of a sodium salt of the compound of Formula (Ia), and 0.85 w/w % poloxamer 188 was prepared. The solution was administered subcutaneously to rats at a dose of 50 mg/kg and to dogs at a dose of 6 mg/kg and the pharmacokinetic (PK) profile was determined. […] In the rat, plasma concentrations of the compound of Formula (Ia) were maintained above the target trough concentration of 20 nM for at least 28 days (4 weeks). In the dog, plasma concentrations of the compound of Formula (Ia) were maintained above the target trough concentration of 20 nM for at least 14 days (2 weeks). […]",
  "note": "Like-named read-outs stand apart in the source and are kept apart here.",
  "data": [
    {"molecule": "CC(C)(C#Cc1ccc(-c2ccc(Cl)c3c(NS(C)(=O)=O)nn(CC(F)(F)F)c23)c([C@H](Cc2cc(F)cc(F)c2)NC(=O)Cn2nc(C(F)(F)F)c3c2C(F)(F)[C@@H]2C[C@H]32)n1)S(C)(=O)=O", "note": "[Formula (Ia), N—((S)-1-(3-(4-chloro-3-(methylsulfonamido)-1-(2,2,2-trifluoroethyl)-1H-indazol-7-yl)-6-(3-methyl-3-(methylsulfonyl)but-1-yn-1-yl)pyridin-2-yl)-2-(3,5-difluorophenyl)ethyl)-2-((3bS,4aR)-5,5-difluoro-3-(trifluoromethyl)-3b,4,4a,5-tetrahydro-1H-cyclopropa[3,4]cyclopenta[1,2-c]pyrazol-1-yl)acetamide]", "values": [
      {"measurement": "concentration at 336 h", "setting": "dog #1", "value": 135, "unit": "nM"},
      {"measurement": "concentration at 504 h", "setting": "dog #1", "value": 172, "unit": "nM"},
      {"measurement": "concentration at 672 h", "setting": "dog #1", "value": 93.1, "unit": "nM"},
      {"measurement": "concentration at 840 h", "setting": "dog #1", "value": 150, "unit": "nM"},
      {"measurement": "concentration at 1008 h", "setting": "dog #1", "value": 80.2, "unit": "nM"},
      {"measurement": "concentration at 1344 h", "setting": "dog #1", "value": 42.7, "unit": "nM"},
      {"measurement": "concentration at 1680 h", "setting": "dog #1", "value": 69.5, "unit": "nM"},
      {"measurement": "concentration at 1 h", "setting": "dog #2", "value": 1.2, "unit": "nM"},
      {"measurement": "concentration at 3 h", "setting": "dog #2", "value": 2.6, "unit": "nM"},
      {"measurement": "concentration at 8 h", "setting": "dog #2", "value": 15.5, "unit": "nM"},
      {"measurement": "concentration at 24 h", "setting": "dog #2", "value": 27.8, "unit": "nM"},
      {"measurement": "concentration at 48 h", "setting": "dog #2", "value": 60.6, "unit": "nM"},
      {"measurement": "concentration at 72 h", "setting": "dog #2", "value": 37.8, "unit": "nM"},
      {"measurement": "concentration at 96 h", "setting": "dog #2", "value": 28.8, "unit": "nM"},
      {"measurement": "concentration at 168 h", "setting": "dog #2", "value": 43.1, "unit": "nM"},
      {"measurement": "concentration at 336 h", "setting": "dog #2", "value": 64.7, "unit": "nM"},
      {"measurement": "concentration at 504 h", "setting": "dog #2", "value": 114, "unit": "nM"},
      {"measurement": "concentration at 672 h", "setting": "dog #2", "value": 81.5, "unit": "nM"},
      {"measurement": "concentration at 840 h", "setting": "dog #2", "value": 110, "unit": "nM"},
      {"measurement": "concentration at 1008 h", "setting": "dog #2", "value": 70.7, "unit": "nM"},
      {"measurement": "concentration at 1344 h", "setting": "dog #2", "value": 41.2, "unit": "nM"},
      {"measurement": "concentration at 1680 h", "setting": "dog #2", "value": 42.2, "unit": "nM"},
      {"measurement": "concentration at 1 h", "setting": "dog #3", "value": 1.2, "unit": "nM"},
      {"measurement": "concentration at 3 h", "setting": "dog #3", "value": 2.3, "unit": "nM"},
      {"measurement": "concentration at 8 h", "setting": "dog #3", "value": 9.2, "unit": "nM"},
      {"measurement": "concentration at 24 h", "setting": "dog #3", "value": 16.8, "unit": "nM"},
      {"measurement": "concentration at 48 h", "setting": "dog #3", "value": 13.2, "unit": "nM"},
      {"measurement": "concentration at 72 h", "setting": "dog #3", "value": 13.2, "unit": "nM"},
      {"measurement": "concentration at 96 h", "setting": "dog #3", "value": 10.4, "unit": "nM"},
      {"measurement": "concentration at 168 h", "setting": "dog #3", "value": 30.8, "unit": "nM"},
      {"measurement": "concentration at 336 h", "setting": "dog #3", "value": 53, "unit": "nM"},
      {"measurement": "concentration at 504 h", "setting": "dog #3", "value": 82.9, "unit": "nM"},
      {"measurement": "concentration at 672 h", "setting": "dog #3", "value": 56.9, "unit": "nM"},
      {"measurement": "concentration at 840 h", "setting": "dog #3", "value": 107, "unit": "nM"},
      {"measurement": "concentration at 1008 h", "setting": "dog #3", "value": 54.1, "unit": "nM"},
      {"measurement": "concentration at 1344 h", "setting": "dog #3", "value": 30.2, "unit": "nM"},
      {"measurement": "concentration at 1680 h", "setting": "dog #3", "value": 28.5, "unit": "nM"},
      {"measurement": "concentration at 3 h", "setting": "dog mean, n=3", "value": 2, "unit": "nM"},
      {"measurement": "concentration at 8 h", "setting": "dog mean, n=3", "value": 11.8, "unit": "nM"},
      {"measurement": "concentration at 24 h", "setting": "dog mean, n=3", "value": 21.5, "unit": "nM"},
      {"measurement": "concentration at 48 h", "setting": "dog mean, n=3", "value": 42.8, "unit": "nM"},
      {"measurement": "concentration at 72 h", "setting": "dog mean, n=3", "value": 37.9, "unit": "nM"},
      {"measurement": "concentration at 96 h", "setting": "dog mean, n=3", "value": 32.7, "unit": "nM"},
      {"measurement": "concentration at 168 h", "setting": "dog mean, n=3", "value": 48.6, "unit": "nM"},
      {"measurement": "concentration at 336 h", "setting": "dog mean, n=3", "value": 84.2, "unit": "nM"},
      {"measurement": "concentration at 504 h", "setting": "dog mean, n=3", "value": 123, "unit": "nM"},
      {"measurement": "concentration at 672 h", "setting": "dog mean, n=3", "value": 77.2, "unit": "nM"},
      {"measurement": "concentration at 840 h", "setting": "dog mean, n=3", "value": 122, "unit": "nM"},
      {"measurement": "concentration at 1008 h", "setting": "dog mean, n=3", "value": 68.3, "unit": "nM"},
      {"measurement": "concentration at 1344 h", "setting": "dog mean, n=3", "value": 38, "unit": "nM"},
      {"measurement": "concentration at 1680 h", "setting": "dog mean, n=3", "value": 46.7, "unit": "nM"},
      {"measurement": "concentration at 1 h", "setting": "dog mean", "value": 1.2, "unit": "nM"},
      {"measurement": "AUC(0-t)", "setting": "n=3, read-out: AUC0-24h", "value": "0.304 ± 0.082", "unit": "µM·h"},
      {"measurement": "AUC(0-t)", "setting": "n=3, read-out: AUC0-48h", "value": "1.08 ± 0.44", "unit": "µM·h"},
      {"measurement": "AUC(0-t)", "setting": "n=3, read-out: AUC0-72h", "value": "2.04 ± 0.98", "unit": "µM·h"},
      {"measurement": "AUC(0-t)", "setting": "n=3, read-out: AUC0-168h", "value": "5.82 ± 3.04", "unit": "µM·h"},
      {"measurement": "AUC(0-t)", "setting": "n=3, read-out: AUC0-672h", "value": "51.2 ± 21", "unit": "µM·h"},
      {"measurement": "AUC(0-t)", "setting": "n=3, read-out: AUC0-1344h", "value": "102 ± 30", "unit": "µM·h"}
    ]}
  ]
}
